The source made the active and inactive calls. How the calls were made is not given here. A value given as a limit tells only on which side of the number the result lay.

As a reminder, the Kd is the free concentration of one partner at which half of the binding sites on the other are occupied at equilibrium, for simple one-to-one binding.

This assay addresses Influenza A virus M2 proton channel (A/TW/4845/1999 H1N1). Briefly: M2 proton channel binding, NMR based, influenza A virus H1N1 strain (AID 1549). The note with it: NMR binding screen, M2 protein.
Regarding `COc1ccc2cc1Oc1ccc(cc1)C[C@H]1c3c(cc4c(c3Oc3cc5c(cc3OC)CCN(C)[C@@H]5C2)OCO4)CCN1C`, the Kd was > 4 mM (inactive).

With `CNS(=O)(=O)c1ccc2[nH]c(=O)[nH]c2c1`, the Kd is > 4 mM (inactive).

As for `O=C(O[C@@H]1Cc2c(O)cc(O)cc2O[C@@H]1c1cc(O)c(O)c(O)c1)c1cc(O)c(O)c(O)c1`, the Kd was > 4 mM (inactive).

For the compound `O=S1(=O)CCC(NCc2ccccc2)C1` (stereo not given), the Kd is > 4 mM (inactive).

With `COc1cc(OC)c2c(c1)O[C@H](c1ccc(OC)c(OC)c1)[C@@H](O)C2`, the Kd was > 4 mM (inactive).

As to `CS(=O)(=O)c1cccc(C(=O)Nc2nccs2)c1`, the Kd is > 4 mM (inactive).

`O=C(O)CC1C(=O)NCCN1Cc1ccccc1` (stereo not given): the Kd was > 4 mM (inactive).

Turning to `NS(=O)(=O)c1ccc(NC(=O)c2cccs2)cc1`, the Kd is > 4 mM (inactive).

In the case of `CC1CCN(C(=S)c2ccccc2O)CC1`, the Kd was > 4 mM (inactive).

Take `COc1ccc2c(c1OC)C(=O)OC2[C@H]1c2c(cc3c(c2OC)OCO3)CCN1C` (stereo not given in full): the Kd was > 4 mM (inactive).

Turning to `Cc1onc(-c2ccc(F)cc2)c1C(=O)O`, the Kd was > 4 mM (inactive).

Take `CC(C)n1c(Nn2cnnc2)nc2ccccc21`: the Kd is > 4 mM (inactive).

As for `CC(=O)OC1CC[C@@]2(C)C(CCC3C2CC[C@]2(C)C(C4=CC(=O)OC4)C(OC(C)=O)CC32O)C1` (stereo not given in full), the Kd was > 4 mM (inactive).

For `COc1ccc2c(c1)OC/C(=C/c1ccc(O)c(O)c1)C2=O`, the Kd is > 4 mM (inactive).

As to `C/C(N)=C/C(=O)N1CCCCC1`, the Kd was > 4 mM (inactive).

For the compound `CSc1nc(C)cc(Oc2ccc(=O)n(C)n2)n1`, the Kd was > 4 mM (inactive).

In the case of `Cc1ccc(/C=C2/C(=O)N=C(N)N2C)s1`, the Kd is > 4 mM (inactive).

In the case of `O=S1(=O)CCC(NC(=S)N2CCOCC2)C1` (stereo not given), the Kd was > 4 mM (inactive).

Consider `CC(=O)c1c(C)nc(C)nc1NC(=O)C(C)C`, for which the Kd was > 4 mM (inactive).

For `C[C@@H]1[C@H]2[C@H](O[C@@H]3O[C@H](CO)[C@@H](O)[C@H](O)[C@H]3O)OC=C(C(=O)O)[C@H]2C[C@@H]1O`, the Kd is > 4 mM (inactive).

As to `CCc1ccccc1NC(=O)c1cnccn1`, the Kd was > 4 mM (inactive).

`CC(=O)O[C@H]1C[C@@H](OC(C)=O)C(C)(C)C2C[C@@H](OC(C)=O)[C@]3(C)C([C@H](OC(C)=O)C[C@@]4(C)[C@H](c5ccoc5)OC(=O)[C@H]5O[C@]543)[C@]21C` (stereo not given in full): the Kd was > 4 mM (inactive).

On to `CCN1C(=O)N(CO)C2C1N(C)C(=O)N2C` (stereo not given), for which the Kd is > 4 mM (inactive).

Turning to `S=C(CN1CCCC1=S)N1CCOCC1`, the Kd was > 4 mM (inactive).

For the compound `O=C(O)CCn1cncn1`, the Kd is > 4 mM (inactive).

As for `O=C1c2ccncc2C(=O)N1CNc1ccccn1`, the Kd is > 4 mM (inactive).

`OCCCc1nc2ccccc2[nH]1`: the Kd was > 4 mM (inactive).

For the compound `CCOC(=O)c1c(C)nc2c(C#N)cnn2c1C`, the Kd is > 4 mM (inactive).

As to `CS(=O)(=O)Nc1ccccc1C(=O)c1ccccc1`, the Kd was > 4 mM (inactive).

Regarding `CC(C)CCCC(C)[C@H]1CCC2C3CC=C4C[C@@H](O)CC[C@]4(C)C3CC[C@@]21C` (stereo not given in full), the Kd was > 4 mM (inactive).

Turning to `Cc1n[nH]c(=O)c2ncn(C)c12`, the Kd was > 4 mM (inactive).

For the compound `CCn1nnc(NC(=O)c2cc3ccccc3o2)n1`, the Kd is > 4 mM (inactive).

`O=C(O[C@@H]1Cc2c(O)cc(O)cc2O[C@@H]1c1ccc(O)c(O)c1)c1cc(O)c(O)c(O)c1`: the Kd was > 4 mM (inactive).

Take `C=C(C)C1(O)OC(=O)C=C1OC` (stereo not given): the Kd is > 4 mM (inactive).

Regarding `O=C(Nc1nc2ccccc2s1)c1ccc(=O)[nH]n1`, the Kd was > 4 mM (inactive).

With `Cc1c(C(=O)Nc2cnccn2)oc2ccccc12`, the Kd was > 4 mM (inactive).

Consider `C[C@@H]1CC[C@@]23CCC4(C)[C@@](C=CC5[C@@]6(C)CC[C@H](O)C(C)(C)C6CC[C@]54C)(OC2=O)C3[C@H]1C` (stereo not given in full), for which the Kd was > 4 mM (inactive).

`COc1c(-c2coc3cc4c(cc3c2=O)CC(O)C(C)(C)O4)ccc2c1C=CC(C)(C)O2` (stereo not given): the Kd is > 4 mM (inactive).

For `O=C(O)C1CNc2ccccc2O1` (stereo not given), the Kd is > 4 mM (inactive).

Take `CN1CCCCC1c1ccc(-c2cccnc2)nc1` (stereo not given): the Kd was > 4 mM (inactive).

As for `CNC(=O)C(=O)Nc1ccc(F)cc1`, the Kd was > 4 mM (inactive).

`Cc1cc(C(=O)N2CCN(S(C)(=O)=O)CC2)cs1`: the Kd is > 4 mM (inactive).

In the case of `Nc1cc(C(=O)N2CCCC2)cc(C(=O)N2CCCC2)c1`, the Kd was > 4 mM (inactive).

In the case of `CC(=O)Nc1cc(O)cc(O)c1`, the Kd is > 4 mM (inactive).

Turning to `CNC(=O)C(=O)NCc1ccc(C)cc1`, the Kd is > 4 mM (inactive).

In the case of `CSc1nc(C)cc(-n2ccc(=O)[nH]c2=O)n1`, the Kd is > 4 mM (inactive).

Turning to `COc1cccc(Oc2ccc(N)cc2)c1`, the Kd is > 4 mM (inactive).

As to `CC(=O)Nc1nnc(-c2ccccn2)o1`, the Kd was > 4 mM (inactive).

Take `C[n+]1cc2c3c(ccc2c2ccc4cc5c(cc4c21)OCO5)OCO3`: the Kd is > 4 mM (inactive).

With `C#CCCCCCCCCCCCC(O)CC(O)COC(C)=O` (stereo not given), the Kd is > 4 mM (inactive).

As for `CC(=O)c1cc2c(s1)SCC(=O)N2`, the Kd was > 4 mM (inactive).

On to `O=C1CNc2cc(C(=O)O)ccc2N1`, for which the Kd was > 4 mM (inactive).

Turning to `CCOc1cccc(C(=O)c2ccc(O)c(O)c2O)c1`, the Kd was > 4 mM (inactive).

In the case of `Cc1ccc(/C=C/C(=O)O)cc1S(=O)(=O)NCCO`, the Kd is > 4 mM (inactive).

Take `O=C(O)c1cc(F)cc2c1OCOC2`: the Kd is > 4 mM (inactive).

Turning to `COc1cc2c(cc1OC)C1Cc3ccc(OC)c(OC)c3CN1CC2` (stereo not given), the Kd is > 4 mM (inactive).

On to `Cc1ccnc(NS(=O)(=O)c2ccccc2)n1`, for which the Kd is > 4 mM (inactive).

For the compound `O=c1cc(-c2ccc(O)cc2)oc2cc(O[C@@H]3O[C@H](CO)[C@@H](O)[C@H](O)[C@H]3O[C@@H]3OC[C@](O)(CO)[C@H]3O)cc(O)c12`, the Kd is > 4 mM (inactive).

Take `Nc1ccc(S(=O)(=O)Nc2nccs2)cc1`: the Kd is > 4 mM (inactive).

Regarding `O=C(Nn1cnnc1)c1cc2c(s1)CCCCC2`, the Kd was > 4 mM (inactive).

With `Cn1c([O-])c([N+](C)(C)C)c(=O)n(C)c1=O`, the Kd was > 4 mM (inactive).

For the compound `Nc1ccc(NC(=O)c2ccco2)c(Cl)c1`, the Kd was > 4 mM (inactive).

As for `Cc1cc(C(=O)NC2=NCCS2)cs1`, the Kd is > 4 mM (inactive).

Consider `O=C(O)C1COc2ccccc2C1` (stereo not given), for which the Kd was > 4 mM (inactive).

With `CC(=O)c1ccc[nH]1`, the Kd was > 4 mM (inactive).

In the case of `c1ccc(-c2nsc(N3CCNCC3)n2)cc1`, the Kd was > 4 mM (inactive).

Turning to `Cc1ccc(O)c(NC(=O)c2ccco2)c1`, the Kd was > 4 mM (inactive).

Regarding `Cc1nnc(N2CCc3ccccc3C2)[nH]c1=O`, the Kd is > 4 mM (inactive).

Consider `O=C(NCc1cccc(Cl)c1)c1ccco1`, for which the Kd is > 4 mM (inactive).

Take `Cc1cc(C)n(-c2nc(N)cc(=O)[nH]2)n1`: the Kd was > 4 mM (inactive).

For the compound `Cn1nccc1N`, the Kd was > 4 mM (inactive).

For `Cc1ccc2cc(N)ccc2n1`, the Kd is > 4 mM (inactive).

Consider `CCC(C)OC1CCS(=O)(=O)C1` (stereo not given), for which the Kd is > 4 mM (inactive).

In the case of `Cn1c2c(c(=O)n(C)c1=O)CN(Cc1ccco1)CN2`, the Kd is > 4 mM (inactive).

Consider `CCOC(=O)c1c(C)nc2cc(C)ccn12`, for which the Kd is > 4 mM (inactive).

Consider `CC(=O)Nc1ccc(C(=O)N2CCOCC2)cc1Cl`, for which the Kd was > 4 mM (inactive).

In the case of `O=C1C=CC(=O)N1c1ccc(N2CCOCC2)cc1`, the Kd is > 4 mM (inactive).

Consider `Cc1cc(O)cc(O)c1C(=O)O`, for which the Kd is > 4 mM (inactive).

On to `Nc1ccc(OC(F)(F)F)cc1`, for which the Kd was > 4 mM (inactive).

Regarding `Cc1cc(C)nc(NC(N)=NCc2ccco2)n1`, the Kd was > 4 mM (inactive).

Consider `NC(=O)CSc1nc2ccccc2c(=O)[nH]1`, for which the Kd is > 4 mM (inactive).

For `CC(C)(C)C(=O)N1CCCC1C(=O)O` (stereo not given), the Kd is > 4 mM (inactive).

For the compound `COc1ccc(-c2nnsc2N)cc1`, the Kd is > 4 mM (inactive).

Take `C=C1C(=O)OC2CC1C(OC(C)=O)C/C(C)=C/CC/C(C)=C/CC[C@]2(C)O` (stereo not given in full): the Kd was > 4 mM (inactive).

Regarding `CN1C2CC(OC(=O)[C@H](CO)c3ccccc3)C[C@H]1[C@H]1OC21` (stereo not given in full), the Kd is > 4 mM (inactive).

On to `COc1ccc(Cc2nccc3cc(OC)c(OC)cc23)cc1OC`, for which the Kd is > 4 mM (inactive).

In the case of `COC(=O)c1c[nH]c2ccccc12`, the Kd was > 4 mM (inactive).

`O=C(O)c1ccc(CN2CCOCC2)cc1`: the Kd is > 4 mM (inactive).

For the compound `c1ccc2c(c1)[nH]c1cnccc12`, the Kd is > 4 mM (inactive).

As for `NC(=O)C1CCN(C2CC(=O)NC2=O)CC1` (stereo not given), the Kd is > 4 mM (inactive).

Regarding `CC1(C)CC23C(=O)CCC(O)C2(C)CCC13` (stereo not given), the Kd is > 4 mM (inactive).

In the case of `COc1ccc(/C=C/c2cc(O)cc(O)c2)cc1`, the Kd is > 4 mM (inactive).

For the compound `Cc1oc(S(=O)(=O)N2CCCCC2)cc1C(=O)O`, the Kd was > 4 mM (inactive).

As to `COC(=O)c1cncn1C`, the Kd is > 4 mM (inactive).

`Cn1c(=O)c2c(ncn2CCNC2=NCCC2)n(C)c1=O`: the Kd is > 4 mM (inactive).

Turning to `CCOC(=O)c1cc(C)n(-n2cnnc2)c1C`, the Kd is > 4 mM (inactive).

With `Nc1nc(SCC(=O)c2ccc([N+](=O)[O-])cc2)n[nH]1`, the Kd was > 4 mM (inactive).

Consider `CC1=CC(=O)CC(C)(C)C1(O)/C=C/C(C)=C\C(=O)O` (stereo not given), for which the Kd was > 4 mM (inactive).

Take `COC(=O)c1scc(S(C)(=O)=O)c1-n1cccc1`: the Kd was > 4 mM (inactive).

Regarding `CN1CCN(C(=O)c2ccccc2N)CC1`, the Kd is > 4 mM (inactive).

(Values after PubChem BioAssay AID1549 (Sanford-Burnham Center for Chemical Genomics, 2009).)
